In ChEMBL document CHEMBL3044925, “Synthesis of piperazino and morpholino derivatives of aryloxypropane with potential analgesic and possible antimigraine activities” (Med Chem Res, 2011):

Assays:
Mus musculus [1] = experiment: Neurotoxicity against Mus musculus MFI (mouse) assessed as tremors at 75 mg/kg, ip; type: toxicity, organism-based; design: dose 75 mg/kg, route intraperitoneal; settings: in vivo
Mus musculus [2] = experiment: Neurotoxicity against Mus musculus MFI (mouse) assessed as muscle twitching at 110 mg/kg, ip; type: toxicity, organism-based, Muscle tissue; design: dose 110 mg/kg, route intraperitoneal; settings: in vivo
Mus musculus [3] = experiment: […] activity in ip dosed Mus musculus MFI (mouse) assessed as inhibition of PBQ-induced writhing administered 1.5 hr prior to PBQ-challenge measured after 10 min; type: functional; settings: read-out: MED
Mus musculus [4] = experiment: […] activity in Mus musculus MFI (mouse) assessed as inhibition of PBQ-induced writhing at 40 mg/kg, ip administered 1.5 hr prior to PBQ-challenge measured after 10 min relative to aspirin; type: functional; settings: route intraperitoneal
Mus musculus [5] = experiment: Neurotoxicity against Mus musculus MFI (mouse) assessed as irritability at 75 mg/kg, ip; type: toxicity, organism-based; design: dose 75 mg/kg, route intraperitoneal; settings: in vivo
Mus musculus [6] = experiment: Neurotoxicity against Mus musculus MFI (mouse) assessed as muscle twitching at 75 mg/kg, ip; type: toxicity, organism-based, Muscle tissue; design: dose 75 mg/kg, route intraperitoneal; settings: in vivo
Mus musculus [7] = experiment: Neurotoxicity against Mus musculus MFI (mouse) assessed as skeletal muscle incoordination at 40 mg/kg, ip; type: toxicity, organism-based, Muscle tissue; design: dose 40 mg/kg, route intraperitoneal; settings: in vivo
Mus musculus [8] = experiment: Neurotoxicity against Mus musculus MFI (mouse) assessed as tail erection at 75 mg/kg, ip; type: toxicity, organism-based; design: dose 75 mg/kg, route intraperitoneal; settings: in vivo
Mus musculus [9] = experiment: Neurotoxicity against Mus musculus MFI (mouse) assessed as tail erection at 110 mg/kg, ip; type: toxicity, organism-based; design: dose 110 mg/kg, route intraperitoneal; settings: in vivo
Mus musculus [10] = experiment: […] activity in Mus musculus MFI (mouse) assessed as inhibition of PBQ-induced writhing at 110 mg/kg, ip administered 1.5 hr prior to PBQ-challenge measured after 10 min relative to aspirin; type: functional; settings: route intraperitoneal
Mus musculus [11] = experiment: Neurotoxicity against Mus musculus MFI (mouse) assessed as hair erection at 110 mg/kg, ip; type: toxicity, organism-based; design: dose 110 mg/kg, route intraperitoneal; settings: in vivo
Mus musculus [12] = experiment: Neurotoxicity against Mus musculus MFI (mouse) assessed as effect on respiration at 75 mg/kg, ip; type: toxicity, organism-based; design: dose 75 mg/kg, route intraperitoneal; settings: in vivo
Mus musculus [13] = experiment: Neurotoxicity against Mus musculus MFI (mouse) assessed as excitation at 110 mg/kg, ip; type: toxicity, organism-based; design: dose 110 mg/kg, route intraperitoneal; settings: in vivo
Mus musculus [14] = experiment: Neurotoxicity against Mus musculus MFI (mouse) assessed as effect on respiration at 40 mg/kg, ip; type: toxicity, organism-based; design: dose 40 mg/kg, route intraperitoneal; settings: in vivo
Mus musculus [15] = experiment: Neurotoxicity against Mus musculus MFI (mouse) assessed as eye protrusion at 40 mg/kg, ip; type: toxicity, organism-based; design: dose 40 mg/kg, route intraperitoneal; settings: in vivo
Mus musculus [16] = experiment: Neurotoxicity against Mus musculus MFI (mouse) assessed as tremors at 110 mg/kg, ip; type: toxicity, organism-based; design: dose 110 mg/kg, route intraperitoneal; settings: in vivo
Mus musculus [17] = experiment: Neurotoxicity against Mus musculus MFI (mouse) assessed as skeletal muscle incoordination at 110 mg/kg, ip; type: toxicity, organism-based, Muscle tissue; design: dose 110 mg/kg, route intraperitoneal; settings: in vivo
Mus musculus [18] = experiment: Neurotoxicity against Mus musculus MFI (mouse) assessed as skeletal muscle incoordination at 75 mg/kg, ip; type: toxicity, organism-based, Muscle tissue; design: dose 75 mg/kg, route intraperitoneal; settings: in vivo
Mus musculus [19] = experiment: Neurotoxicity against Mus musculus MFI (mouse) assessed as tremors at 40 mg/kg, ip; type: toxicity, organism-based; design: dose 40 mg/kg, route intraperitoneal; settings: in vivo
Mus musculus [20] = experiment: Neurotoxicity against Mus musculus MFI (mouse) assessed as irritability at 40 mg/kg, ip; type: toxicity, organism-based; design: dose 40 mg/kg, route intraperitoneal; settings: in vivo
Mus musculus [21] = experiment: Neurotoxicity against Mus musculus MFI (mouse) assessed as tail erection at 40 mg/kg, ip; type: toxicity, organism-based; design: dose 40 mg/kg, route intraperitoneal; settings: in vivo
Mus musculus [22] = experiment: Neurotoxicity against Mus musculus MFI (mouse) assessed as epilepsy at 75 mg/kg, ip; type: toxicity, organism-based; design: dose 75 mg/kg, route intraperitoneal; settings: in vivo
Mus musculus [23] = experiment: Neurotoxicity against Mus musculus MFI (mouse) assessed as epilepsy at 40 mg/kg, ip; type: toxicity, organism-based; design: dose 40 mg/kg, route intraperitoneal; settings: in vivo
Mus musculus [24] = experiment: Neurotoxicity against Mus musculus MFI (mouse) assessed as irritability at 110 mg/kg, ip; type: toxicity, organism-based; design: dose 110 mg/kg, route intraperitoneal; settings: in vivo
Mus musculus [25] = experiment: Neurotoxicity against Mus musculus MFI (mouse) assessed as excitation at 40 mg/kg, ip; type: toxicity, organism-based; design: dose 40 mg/kg, route intraperitoneal; settings: in vivo
Mus musculus [26] = experiment: […] activity in Mus musculus MFI (mouse) assessed as inhibition of PBQ-induced writhing at 75 mg/kg, ip administered 1.5 hr prior to PBQ-challenge measured after 10 min relative to aspirin; type: functional; settings: route intraperitoneal
Mus musculus [27] = experiment: Neurotoxicity in ip dosed Mus musculus MFI (mouse); type: toxicity, organism-based; settings: in vivo
Mus musculus [28] = experiment: Neurotoxicity against Mus musculus MFI (mouse) assessed as muscle twitching at 40 mg/kg, ip; type: toxicity, organism-based, Muscle tissue; design: dose 40 mg/kg, route intraperitoneal; settings: in vivo
Mus musculus [29] = experiment: Neurotoxicity against Mus musculus MFI (mouse) assessed as eye protrusion at 75 mg/kg, ip; type: toxicity, organism-based; design: dose 75 mg/kg, route intraperitoneal; settings: in vivo
Mus musculus [30] = experiment: Neurotoxicity against Mus musculus MFI (mouse) assessed as hair erection at 40 mg/kg, ip; type: toxicity, organism-based; design: dose 40 mg/kg, route intraperitoneal; settings: in vivo
Mus musculus [31] = experiment: Neurotoxicity against Mus musculus MFI (mouse) assessed as excitation at 75 mg/kg, ip; type: toxicity, organism-based; design: dose 75 mg/kg, route intraperitoneal; settings: in vivo
Mus musculus [32] = experiment: Neurotoxicity against Mus musculus MFI (mouse) assessed as eye protrusion at 110 mg/kg, ip; type: toxicity, organism-based; design: dose 110 mg/kg, route intraperitoneal; settings: in vivo
Mus musculus [33] = experiment: Neurotoxicity against Mus musculus MFI (mouse) assessed as effect on respiration at 110 mg/kg, ip; type: toxicity, organism-based; design: dose 110 mg/kg, route intraperitoneal; settings: in vivo
Mus musculus [34] = experiment: Neurotoxicity against Mus musculus MFI (mouse) assessed as hair erection at 75 mg/kg, ip; type: toxicity, organism-based; design: dose 75 mg/kg, route intraperitoneal; settings: in vivo
Mus musculus [35] = experiment: Neurotoxicity against Mus musculus MFI (mouse) assessed as epilepsy at 110 mg/kg, ip; type: toxicity, organism-based; design: dose 110 mg/kg, route intraperitoneal; settings: in vivo

Q: Which results are given for `CC(CN1CCN(C)CC1)Oc1c(Br)cccc1Br.O=C(O)C(=O)O` (racemic)?
A: Activity (Mus musculus [1]): Toxic; Activity (Mus musculus [2]): Toxic; minimal effective dose (Mus musculus [3]): 40 mg/kg; inhibition in vivo at 40 mg/kg (Mus musculus [4]): 12.5%; Activity (Mus musculus [5]): Toxic; Activity (Mus musculus [6]): Toxic; Activity (Mus musculus [7]): Toxic; Activity (Mus musculus [8]): Toxic; Activity (Mus musculus [9]): Toxic; inhibition in vivo at 110 mg/kg (Mus musculus [10]): 100%; Activity (Mus musculus [11]): Toxic; Activity (Mus musculus [12]): Toxic; Activity (Mus musculus [13]): Toxic; Activity (Mus musculus [14]): Toxic; Activity (Mus musculus [15]): Toxic; Activity (Mus musculus [16]): Toxic; Activity (Mus musculus [17]): Toxic; Activity (Mus musculus [18]): Toxic; Activity (Mus musculus [19]): Toxic; Activity (Mus musculus [20]): Toxic; Activity (Mus musculus [21]): Toxic; Activity (Mus musculus [22]): Toxic; Activity (Mus musculus [23]): Toxic; Activity (Mus musculus [24]): Toxic; Activity (Mus musculus [25]): Toxic; inhibition in vivo at 75 mg/kg (Mus musculus [26]): 37.5%; MTC (Mus musculus [27]): 75 mg/kg; Activity (Mus musculus [28]): Toxic; Activity (Mus musculus [29]): Toxic; Activity (Mus musculus [30]): Toxic; Activity (Mus musculus [31]): Toxic; Activity (Mus musculus [32]): Toxic; Activity (Mus musculus [33]): Toxic; Activity (Mus musculus [34]): Toxic; Activity (Mus musculus [35]): Toxic
